SMILES strings stand for the structures. The source made the active and inactive calls. The rule behind the calls is not given here.

The values below come from ChEMBL document CHEMBL1151296, “Ipomopsin, a New Biscoumarin from Ipomopsis aggregata” (J Nat Prod, 1984).

One experiment has as its system KB. The experiment can be described thus: Cytotoxicity against human KB cells. Type of experiment: functional, cell-based.
A further experiment concerns P388. Nature of the experiment: Cytotoxicity against mouse P388 cells. The experiment is classed as functional, cell-based.

For `COc1cc2cc(-c3c(O)c(OC)cc4ccc(=O)oc34)c(=O)oc2cc1O`, the outcome in the experiment on KB and in the experiment with P388 was inactive.
